Experimental data taken from US20220008392A1, “METHODS OF TREATING CANCER” (ASTRAZENECA AB, priority 2018, published 2022).

How the values were obtained:
lymphoma cell lines = experiment: 6-hour caspase activation assay (Caspase-Glo 3/7) in 33 lymphoma cell line panel; assay type: cell-based; settings: for Emax: 6 hour compound incubation, cell lines highlighted in FIG. 1B, read-out: caspase maximum effect
Procedure: Method: 33 diffuse large B-cell (DLBCL) and Mantle cell (MCL) lymphoma cell lines were seeded onto 384 well plates pre-dosed with 10-point, ½ log titrations of AZD4573 or AZD5991, and incubated for 6 hours. Following the incubation cleaved caspase was measured using Caspase-Glo 3/7 (Promega) following the manufacturer's protocol. Data was analyzed using GeneData Screener and Spotfire.
Method: Cell lysates from 33 lymphoma cell lines were generated in parallel to evaluate protein expression of pro-survival Bcl2 family members. Cell lysates were normalized for protein concentration using the BCA Protein Assay Kit, and western blots were run according to standard protocols. A positive cell line control for expression of Bfl-1, TMD8, was utilized for normalization to other cell lines in the panel. AZD4573 and AZD5991 respective median and geomean caspase EC50's were calculated from cell lines clustered based on high and low Bfl-1 expression, respectively.

[1] = test system: OCILY10 and TMD8 cell lines; experiment: Caspase-Glo 3/7 activation after Bfl-1 siRNA knockdown; assay type: cell-based; settings: 6 hours
Procedure: Method: OCILY10 and TMD8 cells were grown in logarithmic phase and plated in serum-free siRNA delivery media at 1×10^6 cells/mL in 12-well plates (Dharmacon B-005000). An siRNA SMARTpool targeting Bfl-1 or a scrambled negative control (NTC) were added to respective wells for 24 hours at 0.1 or 0.5 μM (Dharmacon Bcl2a1-597, NTC-D-001910-01). 2 mL of cell culture media was added to all transfected wells and transferred into a 6-well plate for an additional 48 hours. Transfected cells were collected to assess Bfl-1 protein knockdown and cleaved caspase-3 by western blot. Transfected cells were also seeded onto 384 well plates pre-dosed with an 8-point titration of AZD4573 or AZD5991 and incubated for 6 hours. The plates were measured for activation of cleaved caspase using Caspase-Glo 3/7 (Promega) following the manufacturer's protocol.

pSer2-RNAP2 = experiment: Western blot of proximal CDK9 biomarker in OCILY10 cells treated with AZD4573; assay type: cell-based
Procedure: (§1) Method: The ABC-DLBCL cell line OCILY10 was treated for 6 h with a 9 pt, ½ log dose response of AZD4573 and cells were harvested for protein lysates. These cells were also treated with AZD4573 at 100 nM for varying timepoints out to 6 hours. At each timepoint (0, 0.5, 1, 2, 4, 6 hours) cells were harvested for either mRNA isolation, or protein lysates, respectively. mRNA was converted to cDNA and PCR sequence amplification was performed with Mcl1 and Bcl2a1 primers following standard protocols. Protein lysates were normalized for protein concentration using the BCA Protein Assay Kit, and run for western blots according to standard protocols. To ensure expected target engagement was achieved, the blots were probed for the proximal biomarker for CDK9 (pSer2-RNAPolII), along with Mcl-1 and Bfl-1. To gauge the time to induction of apoptosis, cleaved caspase-3 was assessed. A loading control (vinculin) was also utilized for normalization.

Mcl-1 and Bfl-1 = Mcl-1 and Bfl-1 mRNA (PCR) and Bcl2 family protein (western blot) modulation in OCILY10 cells; assay type: cell-based
Procedure: as §1

OCILY10 cells = experiment: Cleaved caspase-3 induction over time in OCILY10 cells; assay type: cell-based; settings: 100 nM AZD4573
Procedure: as §1

OCILY10 xenograft = experiment: OCILY10 ABC-DLBCL xenograft efficacy; assay type: in vivo, C.B.-17 SCID female mice
Procedure: (§2) Method: AZD4573 was formulated in dimethylacetamide (DMA)/polyethylene glycol 400 (PEG 400)/1% w/v Tween 80 solution 2/30/68 and dosed at 15 mg/kg, intraperitoneally (ip), BID with a 2 hour split on days 1 and 2 with a 5 day dose holiday.
(§3) AZD5991 was formulated for intravenous use in 30% HPBCD (hydroxy-propyl-beta-cyclodextrin) in water-for-injection adjusted to pH 9.0-9.5 up to a concentration of 20 mg/mL (based on parent form). AZD5991 was dosed at 60 mg/kg by tail-vain intravenous injection once weekly.
(§4) 5×10^6 OCILy10 tumor cells or 10×10^6 TMD8 tumor cells were injected subcutaneously in the right flank of C.B.-17 SCID female mice in a volume of 0.1 mL containing 50% matrigel.
(§5) Tumor volumes (measured by caliper), animal body weight, and tumor condition were recorded twice weekly for the duration of the studies. The tumor volume was calculated using the formula: length (mm)×width (mm)^2×0.52. For efficacy studies, growth inhibition from the start of treatment was assessed by comparison of the differences in tumor volume between control and treated groups. Dosing began when mean tumor size reached approximately 150-180 mm^3. CR=complete response.

TMD8 xenograft = experiment: TMD8 ABC-DLBCL xenograft efficacy; assay type: in vivo, C.B.-17 SCID female mice
Procedure: as §2, §3, §4, §5

[2] = 15 mg/kg ip BID with 2 hour split on days 1 and 2, 5 day dose holiday

geometric mean caspase EC50 difference between AZD5991 and AZD4573 (lymphoma cell lines; Bfl-1 expressing cell lines (n=8))	geometric mean caspase EC50 difference between AZD5991 and AZD4573 (lymphoma cell lines; cell lines with no expression of Bfl-1 (n=25))	SMILES	Emax (lymphoma cell lines)	maximum level of apoptosis (cleaved caspase) ([1]; OCILY10 and TMD8, Bfl-1 siRNA knockdown cells)	maximum level of apoptosis (cleaved caspase) ([1]; average of OCILY10 and TMD8, without Bfl-1 knockdown)	Expression of pSer2-RNAP2 inhibited (pSer2-RNAP2; 100 nM AZD4573, 30 minutes after dosing)	pSer2-RNAP2 inhibition (pSer2-RNAP2; 6 h, serial dilutions of AZD4573)	time by which Mcl1 and Bfl1 mRNA expression were reduced to equivalent levels (Mcl-1 and Bfl-1; 100 nM AZD4573)	time of reductions in Mcl-1 and Bfl-1 protein (Mcl-1 and Bfl-1; 100 nM AZD4573)	expression of longer lived proteins Bcl2, Bcl-xL and Bcl-W (Mcl-1 and Bfl-1; after 6 h treatment with AZD4573)	reductions in Mcl-1 and Bfl-1 protein (Mcl-1 and Bfl-1; at concentrations that inhibited pSer2-RNAP2)	time at which cleaved caspase was detected (OCILY10 cells)	TGI (OCILY10 xenograft; [2])	anti-tumor response (OCILY10 xenograft; OCILY10 xenograft, AZD4573 treatment)	TGI (TMD8 xenograft; [2])	anti-tumor response (TMD8 xenograft; TMD8 xenograft, AZD4573 treatment)
–	–	Cc1c2c(nn1C)CSCc1cc(n(C)n1)CSc1cc(c3ccccc3c1)OCCCc1c(C(=O)O)n(C)c3c-2c(Cl)ccc13 (atropisomer, axis not shown) [AZD5991]	< 50%	over 90%	45%	–	–	–	–	–	–	–	–	–	–	–
22 fold	4 fold	CC(=O)N[C@@H]1CCC[C@H](C(=O)Nc2cc(-c3cnn4c3CC(C)(C)C4)c(Cl)cn2)C1 [AZD4573, (1S,3R)-3-acetamido-N-(5-chloro-4-(5,5-dimethyl-5,6-dihydro-4H-pyrrolo [1,2-b]pyrazol-3-yl)pyridin-2-yl)cyclohexanecarboxamide]	> 50%	–	–	> 80%	inhibited in a dose-dependent manner	≤ 2 h	4 h	relatively unchanged	Equipotent reductions	6 h	198%	complete tumor regressions	184%	complete tumor regressions
